According to patent US10405547B2, “Substituted cyclic amides as herbicides” (FMC Corporation, priority 2015, dated 2019):

Tests used:
Format in all cases: in vivo
Settings in all cases: 0 to 100 scale (0 no effect, 100 complete control)
[1] = test system: barnyardgrass (Echinochloa crus-galli); assay: Test A preemergence, barnyardgrass
Description: (§1) Test A Seeds of plant species selected from barnyardgrass (Echinochloa crus-galli), kochia (Kochia scoparia), ragweed (common ragweed, Ambrosia elatior), ryegrass, Italian (Lolium multiflorum), foxtail, giant (Setaria faberii), and pigweed (Amaranthus retroflexus), were planted into a blend of loam soil and sand and treated preemergence with a directed soil spray using test chemicals formulated in a non-phytotoxic solvent mixture which included a surfactant.
(§2) At the same time, plants selected from these weed species and also blackgrass (Alopecurus myosuroides), galium (catchweed bedstraw, Galium aparine), wheat (Triticum aestivum), and corn (Zea mays) were planted in pots containing the same blend of loam soil and sand and treated with postemergence applications of test chemicals formulated in the same manner. Plants ranged in height from 2 to 10 cm and were in the one- to two-leaf stage for the postemergence treatment. Treated plants and untreated controls were maintained in a greenhouse for approximately 10 days, after which time all treated plants were compared to untreated controls and visually evaluated for injury. Plant response ratings, summarized in Table A, are based on a 0 to 100 scale where 0 is no effect and 100 is complete control. A dash (-) response means no test result.

kochia (Kochia scoparia) [2] = assay: Test A preemergence, kochia
Description: as §1, §2

[3] = test system: ragweed (common ragweed, Ambrosia elatior); assay: Test A preemergence, ragweed
Description: as §1, §2

[4] = test system: ryegrass, Italian (Lolium multiflorum); assay: Test A preemergence, Italian ryegrass
Description: as §1, §2

[5] = test system: foxtail, giant (Setaria faberii); assay: Test A preemergence, giant foxtail
Description: as §1, §2

[6] = test system: pigweed (Amaranthus retroflexus); assay: Test A preemergence, pigweed
Description: as §1, §2

[7] = test system: barnyardgrass (Echinochloa crus-galli); assay: Test A postemergence, barnyardgrass
Description: as §1, §2

kochia (Kochia scoparia) [8] = assay: Test A postemergence, kochia
Description: as §1, §2

[9] = test system: ragweed (common ragweed, Ambrosia elatior); assay: Test A postemergence, ragweed
Description: as §1, §2

[10] = test system: ryegrass, Italian (Lolium multiflorum); assay: Test A postemergence, Italian ryegrass
Description: as §1, §2

[11] = test system: foxtail, giant (Setaria faberii); assay: Test A postemergence, giant foxtail
Description: as §1, §2

[12] = test system: pigweed (Amaranthus retroflexus); assay: Test A postemergence, pigweed
Description: as §1, §2

[13] = test system: blackgrass (Alopecurus myosuroides); assay: Test A postemergence, blackgrass
Description: as §1, §2

[14] = test system: galium (catchweed bedstraw, Galium aparine); assay: Test A postemergence, galium
Description: as §1, §2

[15] = test system: wheat (Triticum aestivum); assay: Test A postemergence, wheat
Description: as §1, §2

corn (Zea mays) = assay: Test A postemergence, corn
Description: as §1, §2

[16] = 125 g ai/ha, visual injury, approximately 10 days
[17] = 500 g ai/ha, visual injury, approximately 10 days

Row | SMILES | Plant response rating, Barnyardgrass ([1]; 125 g ai/ha) | Plant response rating, Barnyardgrass ([1]; 500 g ai/ha) | Plant response rating, Kochia (kochia (Kochia scoparia) [2]; 125 g ai/ha) | Plant response rating, Kochia (kochia (Kochia scoparia) [2]; 500 g ai/ha) | Plant response rating, Ragweed ([3]; 125 g ai/ha) | Plant response rating, Ragweed ([3]; 500 g ai/ha) | Plant response rating, Ryegrass, Italian ([4]; 125 g ai/ha) | Plant response rating, Ryegrass, Italian ([4]; 500 g ai/ha) | Plant response rating, Foxtail, Giant ([5]; 125 g ai/ha) | Plant response rating, Pigweed ([6]; 125 g ai/ha) | Plant response rating, Barnyardgrass [7, 16] | Plant response rating, Kochia (kochia (Kochia scoparia) [8]; [16]) | Plant response rating, Ragweed [9, 16] | Plant response rating, Ryegrass, Italian [10, 16] | Plant response rating, Foxtail, Giant [11, 16] | Plant response rating, Pigweed [12, 16] | Plant response rating, Blackgrass [13, 16] | Plant response rating, Galium [14, 16] | Plant response rating, Wheat [15, 16] | Plant response rating, Corn (corn (Zea mays); [16]) | further results
1 | CC1(COc2cccc(C3CNC(=O)C3C(=O)Nc3cccc(F)c3F)c2)COC1 (centres unmarked) [Compound 13] | 0 | 80 | 0 | 0 | 0 | 0 | 0 | 0 | 80 | 0 | 0 | 0 | 0 | 0 | 40 | 0 | 0 | 0 | 0 | 0 | Plant response rating, Foxtail, Giant ([5]; 500 g ai/ha): 90; Plant response rating, Pigweed ([6]; 500 g ai/ha): 0; Plant response rating, Barnyardgrass [7, 17]: 60; Plant response rating, Kochia (kochia (Kochia scoparia) [8]; [17]): 20; Plant response rating, Ragweed [9, 17]: 0; Plant response rating, Ryegrass, Italian [10, 17]: 30; Plant response rating, Foxtail, Giant [11, 17]: 70; Plant response rating, Pigweed [12, 17]: 0; Plant response rating, Blackgrass [13, 17]: 20; Plant response rating, Galium [14, 17]: 40; Plant response rating, Wheat [15, 17]: 0; Plant response rating, Corn (corn (Zea mays); [17]): 0
2 | O=C1NCC(c2cccc(Oc3ncc(Cl)cn3)c2)C1C(=O)Nc1ccccc1F (centres unmarked) [Compound 55] | 0 | 80 | 0 | 20 | 0 | 0 | 0 | 20 | 80 | 0 | 30 | 0 | 0 | 0 | 70 | 0 | 0 | 0 | 0 | 0 | Plant response rating, Foxtail, Giant ([5]; 500 g ai/ha): 90; Plant response rating, Pigweed ([6]; 500 g ai/ha): 0; Plant response rating, Barnyardgrass [7, 17]: 80; Plant response rating, Kochia (kochia (Kochia scoparia) [8]; [17]): 0; Plant response rating, Ragweed [9, 17]: 0; Plant response rating, Ryegrass, Italian [10, 17]: 30; Plant response rating, Foxtail, Giant [11, 17]: 80; Plant response rating, Pigweed [12, 17]: 0; Plant response rating, Blackgrass [13, 17]: 0; Plant response rating, Galium [14, 17]: 30; Plant response rating, Wheat [15, 17]: 0; Plant response rating, Corn (corn (Zea mays); [17]): 0
3 | O=C1NCC(c2cccc(Cn3cncn3)c2)C1C(=O)Nc1ccccc1F (centres unmarked) [Compound 31] | 0 | 0 | 0 | 0 | 0 | 0 | 0 | 0 | 0 | 0 | 0 | 0 | 0 | 0 | 0 | 0 | 0 | 0 | 0 | 0 | Plant response rating, Foxtail, Giant ([5]; 500 g ai/ha): 0; Plant response rating, Pigweed ([6]; 500 g ai/ha): 0; Plant response rating, Barnyardgrass [7, 17]: 0; Plant response rating, Kochia (kochia (Kochia scoparia) [8]; [17]): 0; Plant response rating, Ragweed [9, 17]: 0; Plant response rating, Ryegrass, Italian [10, 17]: 0; Plant response rating, Foxtail, Giant [11, 17]: 0; Plant response rating, Pigweed [12, 17]: 0; Plant response rating, Blackgrass [13, 17]: 0; Plant response rating, Galium [14, 17]: 20; Plant response rating, Wheat [15, 17]: 0; Plant response rating, Corn (corn (Zea mays); [17]): 0
4 | O=C1NCC(c2cccc(Oc3ncc(F)cc3F)c2)C1C(=O)Nc1cccc(F)c1F (single isomer, unassigned) [Compound 71] | 70 |  | 30 |  | 0 |  | 0 |  | 90 | 80 | 70 | 20 | 30 | 0 | 70 | 50 | 0 | 50 | 0 | 20 | Plant response rating, Barnyardgrass ([1]; 31 g ai/ha): 0; Plant response rating, Kochia (kochia (Kochia scoparia) [2]; 31 g ai/ha): 0; Plant response rating, Ragweed ([3]; 31 g ai/ha): 0; Plant response rating, Ryegrass, Italian ([4]; 31 g ai/ha): 0; Plant response rating, Foxtail, Giant ([5]; 31 g ai/ha): 70; Plant response rating, Pigweed ([6]; 31 g ai/ha): 20; Plant response rating, Barnyardgrass ([7]; 31 g ai/ha): 30; Plant response rating, Kochia (kochia (Kochia scoparia) [8]; 31 g ai/ha): 0; Plant response rating, Ragweed ([9]; 31 g ai/ha): 0; Plant response rating, Ryegrass, Italian ([10]; 31 g ai/ha): 0; Plant response rating, Foxtail, Giant ([11]; 31 g ai/ha): 20; Plant response rating, Pigweed ([12]; 31 g ai/ha): 0; Plant response rating, Blackgrass ([13]; 31 g ai/ha): 0; Plant response rating, Galium ([14]; 31 g ai/ha): 30; Plant response rating, Wheat ([15]; 31 g ai/ha): 0; Plant response rating, Corn (corn (Zea mays); 31 g ai/ha): 0
